In patent publication US6495591B1, “Fungal efflux pump inhibitors” (Essential Therapeutics, Inc., priority 1997, dated 2002):
In brackets after ≈: the same amount, converted by molar mass. Like-named read-outs stand apart in the source and are kept apart here.

What was measured:
Format in all cases: cell-based
[1] = tested on: S. cerevisiae YEM-37 (CDR2 introduced); test: microbe, parasite or virus in culture; settings: Saccharomyces cerevisiae, read-out: MIC Mb alone
[2] = tested on: S. cerevisiae YEM-40 (CgCDR, MF, introduced); test: microbe, parasite or virus in culture; settings: Saccharomyces cerevisiae, read-out: MIC Mb alone
[3] = tested on: C. albicans YEM-30 (wild-type, no pump deleted); test: microbe, parasite or virus in culture
[4] = tested on: C. albicans YEM-27 (CDR1, CDR2, BEN, FLU1 deleted); test: microbe, parasite or virus in culture
[5] = tested on: C. albicans YEM-10 (low level CDR1 expressor); test: microbe, parasite or virus in culture
[6] = tested on: C. albicans YEM-12 (low level CDR1 expressor); test: microbe, parasite or virus in culture
[7] = tested on: C. glabrata YEM-17 (CgCDR overexpressor); test: microbe, parasite or virus in culture
[8] = tested on: C. glabrata YEM-19 (CgCDR overexpression, higher than YEM-17); test: microbe, parasite or virus in culture
[9] = tested on: C. glabrata YEM-19 (CgCDR overexpressor)
[10] = tested on: C. glabrata YEM-17 (CgCDR overexpressor); test: microbe, parasite or virus in culture; set-up: MIC Reduction Factor, fluconazole / MIC Reduction Factor, itraconazole / MIC Reduction Factor, ketoconazole / MIC Reduction Factor, terbinafine: unit not given beside the values; settings: for MIC: Nakaseomyces glabratus
[11] = tested on: S. cerevisiae YEM-1 overexpressing CDR1 (C. albicans); test: microbe, parasite or virus in culture; set-up: MIC Reduction Factor, fluconazole: unit not given beside the values; settings: for MIC: Saccharomyces cerevisiae
[12] = tested on: C. glabrata clinical isolates (n = 12); test: microbe, parasite or virus in culture
[13] = Candida albicans, read-out: MIC Mb alone
[14] = Nakaseomyces glabratus, read-out: MIC of milbemycin β1 (MB) alone
[15] = read-out: Terbinafine MIC in the presence of FEPImax
[16] = YEM-17, milbemycin α9 at FEPImax
[17] = YEM-1 (CDR1), milbemycin α9 at FEPImax
[18] = YEM-1, milbemycin α9 at FEPImax

CO[C@H]1C[C@@]2(O)/C(CO)=C/C=C/[C@H](C)C/C(C)=C/C[C@@H]3C[C@@H](C[C@]4(CC[C@H](C)[C@@H](C)O4)O3)OC(=O)[C@@H]2C=C1C [Compound 6, Milbemycin β1]
MIC [1]: 8 µg/mL (≈ 14.7 µM)
MIC [2]: 8 µg/mL (≈ 14.7 µM)
MIC [3, 13]: 16 µg/mL (≈ 29.4 µM)
MIC of fluconazole, Flu + Mb (2.5 μg/ml) ([3]; YEM-30, milbemycin β1 2.5 μg/ml): 0.125 µg/mL
MIC [4, 13]: 16 µg/mL (≈ 29.4 µM)
MIC of fluconazole, Flu + Mb (2.5 μg/ml) ([4]; YEM-27, all four pumps deleted, milbemycin β1 2.5 μg/ml): 0.03 µg/mL
Effect on fluconazole susceptibility ([4]; YEM-27, strain which lacked all identified efflux pumps): No effect
MIC [5, 13]: 16 µg/mL (≈ 29.4 µM)
MIC of fluconazole, Flu + Mb (2.5 μg/ml) ([5]; YEM-10, milbemycin β1 2.5 μg/ml): 0.125 µg/mL
MIC [6, 13]: 32 µg/mL (≈ 58.7 µM)
MIC of fluconazole, Flu + Mb (2.5 μg/ml) ([6]; YEM-12, milbemycin β1 2.5 μg/ml): 0.25 µg/mL
MIC [7, 14]: > 64 µg/mL
Fluconazole MIC with 2.5 μg/ml milbemycin β1 ([7]; YEM-17): 4 µg/mL
Fluconazole MIC with 5 μg/ml milbemycin β1 ([7]; YEM-17): 2 µg/mL
Fluconazole MIC with 10 μg/ml milbemycin β1 ([7]; YEM-17): 2 µg/mL
Fluconazole MIC with […] milbemycin β1 ([7]; YEM-17): 8 µg/mL
MIC [8, 14]: > 64 µg/mL
Fluconazole MIC with 2.5 μg/ml milbemycin β1 ([8]; YEM-19): 8 µg/mL
Fluconazole MIC with 5 μg/ml milbemycin β1 ([8]; YEM-19): 2 µg/mL
Fluconazole MIC with 10 μg/ml milbemycin β1 ([8]; YEM-19): 2 µg/mL
Fluconazole MIC with […] milbemycin β1 ([8]; YEM-19): 32 µg/mL
Minimal concentration required to reduce the MIC of fluconazole by sixteen-fold [9]: 2.5 µg/mL

C/C1=C\C[C@@H]2C[C@@H](C[C@]3(CC[C@H](C)[C@@H](C)O3)O2)OC(=O)[C@@H]2C=C(COC(=O)c3ccc[nH]3)[C@@H](O)[C@H]3OC/C(=C\C=C\[C@H](C)C1)[C@]32O [Compound 11, Milbemycin α9]
MIC ([10]; read-out: Milbemycin α9 MIC): > 64 µg/mL
MIC [10, 15]: 4 µg/mL
FEPImax (minimal milbemycin α9 conc. for maximum MIC reduction), fluconazole ([10]; YEM-17): 8 µg/mL
FEPImax (minimal milbemycin α9 conc. for maximum MIC reduction), itraconazole ([10]; YEM-17): 4 µg/mL
FEPImax (minimal milbemycin α9 conc. for maximum MIC reduction), ketoconazole ([10]; YEM-17): 16 µg/mL
FEPImax (minimal milbemycin α9 conc. for maximum MIC reduction), terbinafine ([10]; YEM-17): 4 µg/mL
Fluconazole MIC in the presence of FEPImax [10, 16]: 4 µg/mL
Itraconazole MIC in the presence of FEPImax [10, 16]: 0.125 µg/mL
Ketoconazole MIC in the presence of FEPImax [10, 16]: 0.06 µg/mL
MIC Reduction Factor, fluconazole [10, 16]: 32
MIC Reduction Factor, itraconazole [10, 16]: 1024
MIC Reduction Factor, ketoconazole [10, 16]: 32
MIC Reduction Factor, terbinafine [10, 16]: 32
MIC ([11]; read-out: Milbemycin α9 MIC): > 64 µg/mL
MIC [11, 15]: 0.5 µg/mL
FEPImax (minimal milbemycin α9 conc. for maximum MIC reduction), fluconazole ([11]; YEM-1 (CDR1)): 2 µg/mL
FEPImax (minimal milbemycin α9 conc. for maximum MIC reduction), terbinafine ([11]; YEM-1 (CDR1)): 0.5 µg/mL
Pump inhibition (%), fluconazole [11, 17]: 100%
Pump inhibition (%), terbinafine [11, 17]: 100%
Fluconazole MIC in the presence of FEPImax [11, 18]: 0.5 µg/mL
MIC Reduction Factor, fluconazole [11, 18]: 256
Fluconazole MIC50, + milbemycin α9 [12]: 2 µg/mL
Fluconazole MIC Range, + milbemycin α9 [12]: <0.25 to 16 µg/mL
Reduction of fluconazole MIC90 by milbemycin α9 ([12]; C. glabrata (n=12)): 16 fold
Fluconazole MIC90, + milbemycin α9 ([12]; C. glabrata n = 12, MIC (80%) in YPD): 8 µg/mL
